Test system: Caenorhabditis elegans
Experiment: C. elegans L1 nematicidal dose response in 96-well plates, 5 day visual score (Example 2; same procedure for Example 7, Table 3)
Assay type: in vivo
Set-up: key to 5 Day Visual Score V1 / 5 Day Visual Score V2 / 5 Day Visual Score V3 / 5 Day Visual Score V4 / 5 Day Visual Score V6 / 5 Day Visual Score V5 / Initial HTS Run Visual Score / Follow-up HTS Run Visual Score: Dead: only stiff L1s (no movement); Dead (L4): worms are dead, but at a later larval stage; majority of worms are L1 (based on size) worms move when plate is tapped; majority of worms are L2 (based on size); majority of worms are L3 (based on size); majority of worms are L4 (based on size); AD: majority of worms are adult; #AD: 5 adult worms or less; B!: sterile (0-25 progeny); B: low broodsize (25-100 progeny); ˜B: moderate broodsize (100-250 progeny); <: reduced broodsize (250-500 progeny); OK: no effect (˜1000+ progeny)
Outline: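 Scoring was by eye at 100× on day 5, after incubation at 20° C, of 20 C. elegans L1s per well fed 1% E. coli HB101 in NGM. Compound columns V1–V6 spanned 70 μM to 0.3 μM in 3-fold steps, with 1.4% DMSO in the top well and as control.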

[1] = dose response, dilution V1, day 5
[2] = dose response, dilution V2, day 5
[3] = dose response, dilution V3, day 5
[4] = dose response, dilution V4, day 5
[5] = dose response, dilution V5, day 5
[6] = dose response, dilution V6, day 5
[7] = 2.6 μM, C. elegans L1, scored day 5
[8] = dose response, dilution V4, 5 day
[9] = dose response, dilution V5, 5 day
[10] = dose response, dilution V6, 5 day

| SMILES | Follow-up HTS Run % Run [%] | Follow-up HTS Run Visual Score | Follow-up HTS Run mOD [mOD] | Initial HTS Run % Run [%] | Initial HTS Run Visual Score | Initial HTS Run mOD [mOD] | 5 Day Visual Score V1 [1] | 5 Day Visual Score V2 [2] | 5 Day Visual Score V3 [3] | 5 Day Visual Score V4 [4] | 5 Day Visual Score V5 [5] | 5 Day Visual Score V6 [6] | also measured |
| --- | --- | --- | --- | --- | --- | --- | --- | --- | --- | --- | --- | --- | --- |
| COCCN(CCOC)c1nc(NCc2ccc(C(F)(F)F)cc2)ns1 [compound 257] | 104 | L4/AD/B! | 168 | 91 | L4/AD/B! | 100 | L1 | ˜B (moderate broodsize (100-250 progeny)) | OK (no effect (˜1000+ progeny)) | OK (no effect (˜1000+ progeny)) | OK (no effect (˜1000+ progeny)) | OK (no effect (˜1000+ progeny)) |  |
| CCOc1cccc(C2ON=C(c3ccccc3OCC)C2C(=O)NCCc2ccc(OC)c(OCC)c2)c1 (stereo not shown) [AKC 124] |  |  |  |  |  |  |  |  |  |  |  |  | 5 Day Visual Score V6 (0.3 μM, C. elegans L1, scored day 5): L4/#AD/B; 5 Day Visual Score V5 (0.9 μM, C. elegans L1, scored day 5): L4/#AD/B; 5 Day Visual Score V4 [7]: L4/#AD/B |
| CCOC(=O)CCN(Cc1ccccc1)c1nc(NCCC(c2ccccc2)c2ccccc2)ns1 [compound 290] | 99 | L4/AD/B | 159 | 101 | L4/AD/B | 111 | Dead |  | OK (no effect (˜1000+ progeny)) | OK (no effect (˜1000+ progeny)) | OK (no effect (˜1000+ progeny)) | OK (no effect (˜1000+ progeny)) |  |
| C=CCN(CC=C)c1nc(NCCC(c2ccccc2)c2ccccc2)ns1 [compound 289] | 86 |  | 139 | 104 | L4/AD/B | 114 |  | ˜B (moderate broodsize (100-250 progeny)) | OK (no effect (˜1000+ progeny)) | OK (no effect (˜1000+ progeny)) | OK (no effect (˜1000+ progeny)) | OK (no effect (˜1000+ progeny)) |  |
| O=C(Nc1ccc(Br)cc1)N1CCC(c2nc(-c3ccccc3)no2)CC1 [AKC 108] |  |  |  |  |  |  |  |  |  |  |  |  | 5 Day Visual Score V4 [7]: L1; 5 Day Visual Score V3 (7.8 μM, C. elegans L1, scored day 5): L1; 5 Day Visual Score V2 (23.3 μM, C. elegans L1, scored day 5): Dead; 5 Day Visual Score V1 (70 μM, C. elegans L1, scored day 5): Dead |
| CCCN(CC1CC1)c1nc(N2CCN(c3ncccn3)CC2)ns1 [compound 222] | 126 |  | 203 | 106 | L2-Dead L3? | 117 | #AD/˜B | OK (no effect (˜1000+ progeny)) | OK (no effect (˜1000+ progeny)) | OK (no effect (˜1000+ progeny)) | OK (no effect (˜1000+ progeny)) | OK (no effect (˜1000+ progeny)) |  |
| CCOC(=O)CCN(Cc1ccccc1)c1nc(N2CCN(c3c(C)cccc3C)CC2)ns1 [compound 233] | 93 | Dead | 150 | 113 | 1AD/B | 124 | Dead |  | ˜B (moderate broodsize (100-250 progeny)) | OK (no effect (˜1000+ progeny)) | OK (no effect (˜1000+ progeny)) | OK (no effect (˜1000+ progeny)) |  |
| CCN(Cc1ccccc1)c1nc(NCc2ccccc2)ns1 [compound 326] | 110 |  | 177 | 95 |  | 105 |  |  |  |  |  |  | 5 Day Visual Score V4 [8]: OK (no effect (˜1000+ progeny)); 5 Day Visual Score V5 [9]: OK (no effect (˜1000+ progeny)); 5 Day Visual Score V6 [10]: OK (no effect (˜1000+ progeny)) |
| Cc1cccc(C)c1N1CCN(c2nsc(N3CCN(c4c(C)cccc4C)CC3)n2)CC1 [compound 227] | 91 | Dead | 146 | 107 | Dead | 118 | Dead | Dead | OK (no effect (˜1000+ progeny)) | OK (no effect (˜1000+ progeny)) | OK (no effect (˜1000+ progeny)) | OK (no effect (˜1000+ progeny)) |  |
| CCCCN(CC)c1nc(NCc2ccc(C(F)(F)F)cc2)ns1 [compound 308] | 130 |  | 210 | 112 |  | 123 | L1 |  | #AD/˜B | OK (no effect (˜1000+ progeny)) | OK (no effect (˜1000+ progeny)) | OK (no effect (˜1000+ progeny)) |  |
| Fc1ccc(N2CCN(c3nc(NCc4ccccc4)ns3)CC2)cc1 [compound 324] | 34 |  | 54 | 114 |  | 125 |  |  |  |  |  |  | 5 Day Visual Score V1 (dose response, dilution V1, 5 day): L1; 5 Day Visual Score V4 [8]: OK (no effect (˜1000+ progeny)); 5 Day Visual Score V5 [9]: < (reduced broodsize (250-500 progeny)); 5 Day Visual Score V6 [10]: OK (no effect (˜1000+ progeny)) |
| CN(CCc1ccccc1)c1nc(NCCc2ccc(F)cc2)ns1 [compound 243] | 86 | B (low broodsize (25-100 progeny)) | 139 | 115 | L4/AD/B! | 127 |  | B (low broodsize (25-100 progeny)) | OK (no effect (˜1000+ progeny)) | OK (no effect (˜1000+ progeny)) | OK (no effect (˜1000+ progeny)) | OK (no effect (˜1000+ progeny)) |  |
